What was measured:
[1] = Inhibition of beta lactamase CTXM-15 in Enterobacter cloacae assessed as decrease in enzyme activity using nitrocefin as substrate preincubated for 10 mins followed by substrate addition measured for 10 mins by fluorescence plate reader analysis
Klebsiella pneumoniae [2] = test: Antibacterial activity against Klebsiella pneumoniae expressing TEM-OSBL/CTX-M-14/OXA-48 by broth microdilution method; assay type: functional
Klebsiella pneumoniae [3] = test: Antibacterial activity against Klebsiella pneumoniae expressing TEM-1/SHV-11/KPC-3 by broth microdilution method; assay type: functional
Acinetobacter baumannii [4] = test: Antibacterial activity against Acinetobacter baumannii expressing OXA-23 by broth microdilution method; assay type: functional
Enterobacter [5] = test: Inhibition of beta lactamase KPC in carbapenem-resistant Enterobacter assessed as meropenem-induced antibacterial activity by measuring meropenem MIC50 at 4 ug/ml by broth microdilution method (Rvb >32 ug/ml); settings: dose 4.0 µg/ml
Enterobacter [6] = test: Inhibition of beta lactamase OXA in carbapenem-resistant Enterobacter assessed as meropenem-induced antibacterial activity by measuring meropenem MIC50 at 4 ug/ml by broth microdilution method (reference value: 16 ug/ml); settings: dose 4.0 µg/ml
Acinetobacter baumannii [7] = test: Inhibition of beta lactamase OXA in carbapenem-resistant Acinetobacter baumannii assessed as meropenem-induced antibacterial activity by measuring meropenem MIC50 at 4 ug/ml by broth microdilution method (Rvb > 32 ug/ml); settings: dose 4.0 µg/ml
Acinetobacter baumannii [8] = test: Inhibition of beta lactamase OXA in carbapenem-resistant Acinetobacter baumannii assessed as meropenem-induced antibacterial activity by measuring meropenem MIC90 at 4 ug/ml by broth microdilution method (Rvb > 32 ug/ml); settings: dose 4.0 µg/ml
Acinetobacter baumannii [9] = test: Inhibition of beta lactamase OXA in carbapenem-resistant Acinetobacter baumannii assessed as meropenem minimum concentration required for antibacterial activity at 4 ug/ml by broth microdilution method (reference value: 8 ug/ml); settings: dose 4.0 µg/ml
[10] = Stability in dog plasma assessed as parent compound remaining after 1 hr; assay type: ADME, cell-free, Canis lupus familiaris; settings: read-out: Stabilty
[11] = Intrinsic clearance in mouse hepatocytes assessed per million cells; assay type: ADME, cell-based, Hepatocyte; settings: read-out: CLH
[12] = Intrinsic clearance in rat hepatocytes assessed per million cells; assay type: ADME, cell-based, Hepatocyte; settings: read-out: CLH
[13] = Intrinsic clearance in human hepatocytes assessed per million cells; assay type: ADME, cell-based, Hepatocyte; settings: read-out: CLH
Cytochrome P450 1A2 = biological target: T1, Cytochrome P450 1A2 (Homo sapiens, UniProt P05177); test: Inhibition of CYP1A2 in human liver microsomes in presence of NADPH by LC-MS/MS analysis; assay type: ADME
T1 sequence (P05177 whole entry): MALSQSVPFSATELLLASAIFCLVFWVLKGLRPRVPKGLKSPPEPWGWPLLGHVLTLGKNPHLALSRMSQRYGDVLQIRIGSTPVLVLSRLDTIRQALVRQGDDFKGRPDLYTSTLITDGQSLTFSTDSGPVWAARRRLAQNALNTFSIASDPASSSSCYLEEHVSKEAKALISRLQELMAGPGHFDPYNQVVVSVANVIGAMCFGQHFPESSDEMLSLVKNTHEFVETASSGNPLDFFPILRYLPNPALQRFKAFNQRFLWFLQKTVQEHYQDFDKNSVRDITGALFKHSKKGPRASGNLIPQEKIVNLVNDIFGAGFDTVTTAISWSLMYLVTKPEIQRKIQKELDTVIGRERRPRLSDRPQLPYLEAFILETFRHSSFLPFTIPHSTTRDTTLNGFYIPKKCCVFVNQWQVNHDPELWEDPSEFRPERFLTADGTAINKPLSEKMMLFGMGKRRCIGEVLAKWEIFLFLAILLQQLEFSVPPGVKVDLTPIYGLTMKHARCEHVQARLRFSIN

Cytochrome P450 2C9 = Cytochrome P450 2C9 (Homo sapiens, UniProt P11712); test: Inhibition of CYP2C9 in human liver microsomes in presence of NADPH by LC-MS/MS analysis; assay type: ADME
Cytochrome P450 2C9, sequence (P11712 whole entry): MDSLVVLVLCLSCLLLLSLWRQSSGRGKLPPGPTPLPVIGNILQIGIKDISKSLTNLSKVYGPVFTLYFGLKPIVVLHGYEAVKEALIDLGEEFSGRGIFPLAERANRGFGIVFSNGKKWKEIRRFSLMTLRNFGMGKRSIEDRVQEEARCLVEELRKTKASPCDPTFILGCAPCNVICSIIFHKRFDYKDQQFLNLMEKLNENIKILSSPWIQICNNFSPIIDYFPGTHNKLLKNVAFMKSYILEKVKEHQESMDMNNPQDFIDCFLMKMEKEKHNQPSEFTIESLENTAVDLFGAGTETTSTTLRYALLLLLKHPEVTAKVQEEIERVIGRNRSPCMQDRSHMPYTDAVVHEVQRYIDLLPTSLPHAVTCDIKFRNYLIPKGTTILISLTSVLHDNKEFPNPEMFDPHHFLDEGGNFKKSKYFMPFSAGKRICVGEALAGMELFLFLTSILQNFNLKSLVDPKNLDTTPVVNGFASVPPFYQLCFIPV

Cytochrome P450 2C19 = Cytochrome P450 2C19 (Homo sapiens, UniProt P33261); test: Inhibition of CYP2C19 in human liver microsomes in presence of NADPH by LC-MS/MS analysis; assay type: ADME
Cytochrome P450 2C19, sequence (P33261 whole entry): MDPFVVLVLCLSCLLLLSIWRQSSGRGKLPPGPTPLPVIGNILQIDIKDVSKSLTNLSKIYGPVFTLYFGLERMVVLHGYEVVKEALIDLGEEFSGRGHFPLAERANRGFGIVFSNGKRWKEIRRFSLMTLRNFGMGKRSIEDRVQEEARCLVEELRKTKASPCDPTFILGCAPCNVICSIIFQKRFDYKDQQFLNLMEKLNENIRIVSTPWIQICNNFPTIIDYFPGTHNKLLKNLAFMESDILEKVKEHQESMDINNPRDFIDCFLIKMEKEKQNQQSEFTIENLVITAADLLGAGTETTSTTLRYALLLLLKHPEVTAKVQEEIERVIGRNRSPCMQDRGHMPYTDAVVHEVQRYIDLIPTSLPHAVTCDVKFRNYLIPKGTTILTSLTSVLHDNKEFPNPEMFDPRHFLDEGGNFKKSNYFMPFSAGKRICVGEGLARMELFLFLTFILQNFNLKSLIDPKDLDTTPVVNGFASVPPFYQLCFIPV

Cytochrome P450 2D6 = Cytochrome P450 2D6 (Homo sapiens, UniProt P10635); test: Inhibition of CYP2D6 in human liver microsomes in presence of NADPH by LC-MS/MS analysis; assay type: ADME
Cytochrome P450 2D6, sequence (P10635 whole entry): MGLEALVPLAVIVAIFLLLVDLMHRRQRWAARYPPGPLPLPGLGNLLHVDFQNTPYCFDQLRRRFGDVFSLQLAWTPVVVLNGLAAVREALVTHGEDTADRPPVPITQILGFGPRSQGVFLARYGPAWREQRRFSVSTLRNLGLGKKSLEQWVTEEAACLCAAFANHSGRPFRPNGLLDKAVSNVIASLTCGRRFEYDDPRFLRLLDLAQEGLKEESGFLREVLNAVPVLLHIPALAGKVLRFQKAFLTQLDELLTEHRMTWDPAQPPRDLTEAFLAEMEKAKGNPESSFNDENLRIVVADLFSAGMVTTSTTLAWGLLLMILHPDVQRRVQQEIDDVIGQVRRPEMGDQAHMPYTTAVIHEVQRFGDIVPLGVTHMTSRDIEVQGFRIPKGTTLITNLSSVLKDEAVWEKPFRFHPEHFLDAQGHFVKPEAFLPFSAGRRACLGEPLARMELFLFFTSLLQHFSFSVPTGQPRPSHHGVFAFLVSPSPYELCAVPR

[14] = biological target: Voltage-gated inwardly rectifying potassium channel KCNH2 (Homo sapiens, UniProt Q12809); test: Inhibition of human ERG by patch-clamp assay
Voltage-gated inwardly rectifying potassium channel KCNH2, sequence (Q12809 whole entry): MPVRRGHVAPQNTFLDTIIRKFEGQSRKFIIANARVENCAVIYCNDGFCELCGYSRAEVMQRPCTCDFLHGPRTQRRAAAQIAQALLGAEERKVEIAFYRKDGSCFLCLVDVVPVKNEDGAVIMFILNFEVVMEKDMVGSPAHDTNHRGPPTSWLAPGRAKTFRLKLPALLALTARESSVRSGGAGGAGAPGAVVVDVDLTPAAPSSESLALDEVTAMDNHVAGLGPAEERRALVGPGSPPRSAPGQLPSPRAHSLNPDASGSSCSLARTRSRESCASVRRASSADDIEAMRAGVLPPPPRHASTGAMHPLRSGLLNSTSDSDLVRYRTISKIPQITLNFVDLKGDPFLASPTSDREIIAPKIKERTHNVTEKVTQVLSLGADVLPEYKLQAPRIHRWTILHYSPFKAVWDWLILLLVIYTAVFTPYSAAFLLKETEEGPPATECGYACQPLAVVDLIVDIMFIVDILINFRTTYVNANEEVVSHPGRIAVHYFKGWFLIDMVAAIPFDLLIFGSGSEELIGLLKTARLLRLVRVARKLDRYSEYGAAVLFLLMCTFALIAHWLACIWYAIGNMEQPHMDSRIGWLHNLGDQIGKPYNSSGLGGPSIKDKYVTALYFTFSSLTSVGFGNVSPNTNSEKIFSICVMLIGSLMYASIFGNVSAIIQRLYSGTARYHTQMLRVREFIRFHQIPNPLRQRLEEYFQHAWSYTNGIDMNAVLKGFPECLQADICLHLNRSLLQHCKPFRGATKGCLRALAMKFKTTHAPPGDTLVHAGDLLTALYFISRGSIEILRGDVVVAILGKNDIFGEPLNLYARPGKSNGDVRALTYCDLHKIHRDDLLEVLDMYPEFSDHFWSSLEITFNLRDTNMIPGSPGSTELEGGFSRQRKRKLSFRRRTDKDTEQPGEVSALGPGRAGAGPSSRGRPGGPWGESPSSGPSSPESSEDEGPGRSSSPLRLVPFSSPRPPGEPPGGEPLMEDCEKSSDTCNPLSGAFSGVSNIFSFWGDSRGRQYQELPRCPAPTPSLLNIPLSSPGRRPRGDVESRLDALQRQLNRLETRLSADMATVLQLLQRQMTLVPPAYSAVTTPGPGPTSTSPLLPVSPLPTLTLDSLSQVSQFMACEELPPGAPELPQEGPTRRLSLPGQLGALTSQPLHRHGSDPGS

[15] = Toxicity in iv dosed rat administered as single dose; assay type: organism-based; settings: in vivo
Klebsiella pneumoniae [16] = test: Potentiation of meropenem-induced antibacterial activity against Klebsiella Pneumoniae NR-48977 expressing KPC-2 infected in CD-1 mouse assessed as reduction in bacterial burden co administered with 300 mg/kg, iv meropenem; assay type: functional, organism-based; settings: dose mg/kg 25-100

Work on `O=C1N2C[C@@H](CC[C@H]2F)N1OS(=O)(=O)[O-].[Na+]` yielded an IC50 [1] of 0.002 µM, an MIC (Klebsiella pneumoniae [2]) of 64 µg/mL and an MIC (Klebsiella pneumoniae [3]) of 128 µg/mL. It also gave an MIC (Acinetobacter baumannii [4]) of over 128 µg/mL, an MIC50 (Enterobacter [5]) of 0.06 µg/mL and an MIC50 (Enterobacter [6]) of 0.12 µg/mL. For the same molecule, the MIC50 (Acinetobacter baumannii [7]) was 4 µg/mL, the MIC90 (Acinetobacter baumannii [8]) was 8 µg/mL and the MIC (Acinetobacter baumannii [9]) was 0.25 µg/mL. The remaining at 1 h [10] was 85%, the hepatocyte CLint [11] was under 3.5 µL/min/1e6 cells and the hepatocyte CLint [12] was under 3.4 µL/min/1e6 cells. It also gave a hepatocyte CLint [13] of under 3.4 µL/min/1e6 cells, an IC50 (Cytochrome P450 1A2) of over 50 µM and an IC50 (Cytochrome P450 2C9) of over 50 µM. For the same molecule, the IC50 (Cytochrome P450 2C19) was over 50 µM, the IC50 (Cytochrome P450 2D6) was over 50 µM and the IC50 [14] was over 100 µM. For the same molecule, the MTD [15] was at least 1000 mg/kg and the Activity (Klebsiella pneumoniae [16]) was “Dose-dependent effect”.

— ChEMBL document CHEMBL4699665, “Discovery of ANT3310, a Novel Broad-Spectrum Serine β-Lactamase Inhibitor of the Diazabicyclooctane Class, Which Strongly Potentiates Meropenem Activity against Carbapenem-Resistant Enterobacterales and Acinetobacter baumannii” (J Med Chem, 2020)
